Assay [1] relates to recurrent or refractory ATL patients. Put plainly: multicenter open-label phase I trial of the clinical compound in non-Hodgkin's lymphoma patients; ATL patients analyzed. Type of assay: in vivo, human. On the set-up: key to Determination of effect on lesion site: Peripheral blood image / Best overall effect / Determination of effect on lesion site: Nodular lesion / Determination of effect on lesion site: Extranodal lesion: CR: Complete Remission; CRu: Uncertified Complete Remission; PR: Partial Remission; SD: Stable Disease; PD: Progressive Disease; NE: Not Evaluable. As to the method: Clinical trials which administer the clinical compound to patients with non-Hodgkin's lymphoma were carried out. ATL patients of the non-Hodgkin's lymphoma patients receiving the clinical compound were analyzed.
The clinical trial is a multicenter open-label phase I trial for the purpose of studying, e.g., safety, tolerability, pharmacokinetics and anti-tumor effect, by administering the clinical compound to patients with recurrent or refractory non-Hodgkin's lymphoma (no standard treatment is established or refractory or intolerant to a standard treatment) including ATL patients. […] In this manner, dose-limiting toxicity and recommended dose for the next phase are determined in the clinical trial.
The clinical compound was orally administered to individual test subjects once a day for consecutive days until unacceptable toxicity or disease progression was confirmed. […] The anti-tumor effect was observed principally, at intervals of 8 weeks, and evaluated based on “Definition, prognostic factors, treatment, and response criteria of adult T-cell leukemia-lymphoma: a proposal from an international consensus meeting” (J Clin Oncol. 2009; 27[3]: 453-9).
The dose of the first cohort was determined to be 150 mg/time/day based on the results of a nonclinical study. The dose of the next cohort was determined by comprehensively evaluating the dose recommended by the modified continual reassessment method (mCRM) based on information of the presence or absence of dose-limited toxicity and all safety data (including adverse event except dose limiting toxicity and abnormal laboratory test values), pharmacokinetics, biomarkers, and effectiveness data obtained up to the time point, and discussing with a sponsors, investigators and external experts.
The dosage amount of the clinical compound was in advance determined per cohort. As the clinical compound, two types of capsules different in dose were provided in combination. As the administration method, oral administration once a day was carried out for consecutive days.
The therapeutic effect on ATL was determined based on “Definition, prognostic factors, treatment, and response criteria of adult T-cell leukemia-lymphoma: a proposal from an international consensus meeting” (J Clin Oncol. 2009; 27[3]: 453-9). Before initiation of the clinical trial, necessary examinations, which were selected from CT scan, bone marrow examination, endoscopic inspection and blood test in accordance with the disease state of the test subject, were carried out to determine a target lesion. A change in the lesion was assessed principally at intervals of 8 weeks.

In assay [2] the test system is ATL patients with a history of treatment with the anti-CCR4 antibody mogamulizumab. Conditions: phase II trials; cited from earlier work.
Where [3] appears, read: ATL patient No. 1, 150 mg oral once a day, treatment history: mogamulizumab present, lenalidomide present.
The mark [4] stands for this setting: ATL patient No. 2, 150 mg oral once a day, treatment history: mogamulizumab present, no lenalidomide.
Where [5] appears, read: ATL patient No. 9, 200 mg oral once a day, treatment history: no mogamulizumab, lenalidomide present.

Turning to `Cc1cc(C)c(CNC(=O)c2cc(Cl)c3c(c2C)O[C@@](C)([C@H]2CC[C@H](N(C)C)CC2)O3)c(=O)[nH]1.Cc1ccc(S(=O)(=O)O)cc1` [clinical compound, (2R)-7-chloro-2-[trans-4-(dimethylamino)cyclohexyl]-N-[(4,6-dimethyl-2-oxo-1,2-dihydropyridin-3-yl)methyl]-2,4-dimethyl-1,3-benzodioxol-5-carboxamide p-toluenesulfonate], the “median value of PFS” value in assay [1] (9 recurrent or refractory ATL patients) worked out at 16.1 weeks. In assay [1] (setting [3]), the Best overall effect result is given as “PD”, the “Determination of effect on lesion site: Extranodal lesion” value is listed as “PD” and the “Determination of effect on lesion site: Nodular lesion” value is given as “PD”. Besides, in assay [1] (setting [4]), the Best overall effect entry is “PR”, the “Determination of effect on lesion site: Extranodal lesion” value is “PR” and the “Determination of effect on lesion site: Nodular lesion” value is recorded as “Cru”. For the same compound, in assay [1] (setting [5]), the Best overall effect entry is recorded as “PR” and the “Determination of effect on lesion site: Peripheral blood image” value is “PR”. Further, the “patients evaluated as SD” value in assay [1] (of 6 patients with a history of treatment with mogamulizumab) is reported as 2 patients. In assay [1] (of 6 patients with a history of treatment with mogamulizumab (CRu: 1 patient, PR: 2 patients)), the responders was 3 patients. Also, the response rate in assay [1] (recurrent or refractory ATL patients evaluable for effectiveness, 4 out of 9 patients [CRu: 1, PR: 3], 95%CI 13.7 to 78.8, intermediate data, oral once a day) is 44.4%. For the same compound, the “disease control rate (percentage of patients exerting an effect of SD or more)” value in assay [1] (recurrent or refractory ATL patients, 7 out of 9 patients, intermediate data) was 77.8%.
`Nc1cccc2c1CN(C1CCC(=O)NC1=O)C2=O` (centres unmarked) [lenalidomide]: the response rate entry in assay [2] is “about 18%”.

The record behind these values is patent publication US20220280492A1, “THERAPEUTIC AGENT FOR CANCER HAVING RESISTANCE TO ANTI-CCR4 ANTIBODY” (DAIICHI SANKYO COMPANY, LIMITED, priority 2019, published 2022).
